Measurements published in patent US20230059873A1, “EXPANSION OF STEM CELLS IN SUSPENSION IN A BIOREACTOR” (REPAIRON GMBH, priority 2019, published 2023).

Tests used:
Type in all cases: cell-based, human
[1] = test system: iPSCs (TC1133); OCT4, TRA-1-60; test: Expression of pluripotency-related genes at end of passages in long-term suspension culture (Example 1)
Protocol: (§1) • 13 ml with 2.5×10^5 cells/ml per vessel in passage 0; 5×10^5 cells/ml per vessel at all other passages. • Medium Change: 62% Exchange per day • Cells: TC1133, NINDS • Culture conditions: 37° C., pH 7.4, dO 23.8%, 300 rpm downstirr.
• 1. Y27632 treatment of iPSC aggregates at a final concentration of 10 μM two hours before dissociation. • 2. Two times washing with Versene: Stop of stirring for two minutes, removal of medium to 2 mL without disturbing sedimented aggregates, addition of Versene to 10 mL, starting the stirring (300 rpm, downwards) for 10 seconds. • 3. Removal of medium to 2 mL in the same way as described in the washing steps and addition of Versene to 5 mL. • 4. Stirring at 600 rpm for up to 15 min until dissociation is sufficient. […] Reduce stirring to 300 rpm. • 6. Cell count. • 7. Transfer a volume of cell suspension into a fresh ambr15 vessel resulting in a seeding concentration of 2-5×10^5 cells/mL, thereby diluting the cell dissociation reagent by addition of an excess volume (at least 5-fold) of iPS-Brew […]

[2] = test system: iPSCs (TC1133); test: Long-term suspension culture of iPSCs in ambr15 bioreactor with automated passaging, ROCKi vs TZV (Example 1): aggregate size and expansion; conditions: for aggregate size: end of all passages except passage 0, ROCK inhibitor used during passaging
Protocol: as §1
• 1. Y27632 treatment of iPSC aggregates at a final concentration of 10 μM two hours before dissociation. • 2. Two times washing with Versene: Stop of stirring for two minutes, removal of medium to 2 mL without disturbing sedimented aggregates, addition of Versene to 10 mL, starting the stirring (300 rpm, downwards) for 10 seconds. • 3. Removal of medium to 2 mL in the same way as described in the washing steps and addition of Versene to 5 mL. • 4. Stirring at 600 rpm for up to 15 min until dissociation is sufficient. […] Reduce stirring to 300 rpm. • 6. Cell count. • 7. Transfer a volume of cell suspension into a fresh ambr15 vessel resulting in a seeding concentration of 2-5×10^5 cells/mL, thereby diluting the cell dissociation reagent by addition of an excess volume (at least 5-fold) of iPS-Brew
(§2) • ambr15 cell culture 24 Disposable bioreactors, Low temp, no sparge, Part number: 001-2B81 • StemMACS iPS-Brew XF, Basal Medium, Order no.: 130-107-086 • StemMACS™ iPS-Brew XF 50× Supplement; Order no.: 130-107-087 • ROCKi Y27632; Stemolecule • Versene Solution, Cat No.: 15040-033 • Ambr15 bioreactor, Sartorius Stedim • Nucleocounter NC-200 Type 900-0201 • Cellavista Cell Imager • Flow Cytometer: BD LSR II Special Order System

[3] = test system: iPSCs (TC1133); test: Effect of ROCKi pretreatment (4 h) on passaging of iPSCs in suspension (Example 4): aggregate size and expansion rate
Protocol: as §1
• 1. […] Two times washing with Versene: Stop of stirring for two minutes, removal of medium to 2 mL without disturbing sedimented aggregates, addition of Versene to 10 mL, starting the stirring (300 rpm, downwards) for 10 seconds. • 3. Removal of medium to 2 mL in the same way as described in the washing steps and addition of Versene to 5 mL. • 4. Stirring at 600 rpm for up to 15 min until dissociation is sufficient. […] Reduce stirring to 300 rpm. • 6. Cell count. • 7. Transfer a volume of cell suspension into a fresh ambr15 vessel resulting in a seeding concentration of 2-5×10^5 cells/mL, thereby diluting the cell dissociation reagent by addition of an excess volume (at least 5-fold) of iPS-Brew
as §2
The aim of this example was to analyze the effects of ROCKi pretreatment on passaging of iPSCs in suspension.

[4] = test system: iPSCs (TC1133); OCT4, NANOG, TRA-1-60; test: Effect of ROCKi pretreatment (4 h) on expression of pluripotency-related markers in iPSCs (Example 4)
Protocol: as §1
• 1. Y27632 treatment of iPSC aggregates at a final concentration of 10 μM two hours before dissociation. • 2. Two times washing with Versene: Stop of stirring for two minutes, removal of medium to 2 mL without disturbing sedimented aggregates, addition of Versene to 10 mL, starting the stirring (300 rpm, downwards) for 10 seconds. • 3. Removal of medium to 2 mL in the same way as described in the washing steps and addition of Versene to 5 mL. • 4. Stirring at 600 rpm for up to 15 min until dissociation is sufficient. In progress controls have to be observed microscopically to assess the right degree of dissociation. • 5. Reduce stirring to 300 rpm. • 6. Cell count. • 7. Transfer a volume of cell suspension into a fresh ambr15 vessel resulting in a seeding concentration of 2-5×10^5 cells/mL, thereby diluting the cell dissociation reagent by addition of an excess volume (at least 5-fold) of iPS-Brew
as §2
The aim of this example was to analyze the effects of ROCKi pretreatment on passaging of iPSCs in suspension. Example 4 was performed like Examples 1-3 except that the ROCKi pretreatment was performed for 4 h.

[5] = day 3 after passaging, with ROCKi pretreatment
[6] = day 4 of passage 0 (day of passaging, cells to be pretreated)
[7] = day 3 after passaging, ROCKi pretreated
[8] = day 5 after passaging, ROCKi pretreated

C[C@@H](N)[C@H]1CC[C@H](C(=O)Nc2ccncc2)CC1 [ROCKi, Y27632]
expression of pluripotency-related genes (OCT4, TRA-1-60) ([1]; end of every analyzed passage): high
accumulated fold increase ([2]; after 43 days, 8 passages, calculated from starting cell numbers and splitting ratios): 9.6×10^6
aggregate size [2]: about 200 μm
aggregate size [3, 5]: 162.06±53 μm
expansion rate [3, 5]: 3.14 fold increase
aggregate size [3, 6]: 197.41±75 μm
expansion rate [3, 6]: 12.34 fold increase
expansion rate ([3]; day 5 after passaging, with ROCKi pretreatment): 9.2 fold increase
NANOG expression [4, 7]: 93.6%
OCT4 expression [4, 7]: 95.9%
TRA-1-60 expression [4, 7]: 99.1%
NANOG expression [4, 6]: 96.9%
OCT4 expression [4, 6]: 97.8%
TRA-1-60 expression [4, 6]: 99.3%
NANOG expression [4, 8]: 81.8%
OCT4 expression [4, 8]: 94.4%
TRA-1-60 expression [4, 8]: 98.7%

O=C(NCc1ccccc1)c1csc(Nc2ccncn2)n1 [TZV, thiazovivin]
expression of pluripotency-related genes ([1]; end of passage 0, 2 and 3): high
aggregate size [2]: about 200 μm
expansion rates of iPSCs relative to ROCKi treated cells ([2]; iPSCs passaged with TZV compared with ROCKi): comparable
